Data published in US20250101041A1, “POSITIVE ALLOSTERIC MODULATORS OF THE MUSCARINIC ACETYLCHOLINE RECEPTOR M4” (Vanderbilt University, priority 2022, published 2025).

Target: T1, human mAChR M4 (Homo sapiens, UniProt P08173)
T1 construct: expressed in transfected cells; host or cells: CHO-K1 (American Type Culture Collection), stably expressing hM4 and Gqi5
T1 sequence (P08173 1-479): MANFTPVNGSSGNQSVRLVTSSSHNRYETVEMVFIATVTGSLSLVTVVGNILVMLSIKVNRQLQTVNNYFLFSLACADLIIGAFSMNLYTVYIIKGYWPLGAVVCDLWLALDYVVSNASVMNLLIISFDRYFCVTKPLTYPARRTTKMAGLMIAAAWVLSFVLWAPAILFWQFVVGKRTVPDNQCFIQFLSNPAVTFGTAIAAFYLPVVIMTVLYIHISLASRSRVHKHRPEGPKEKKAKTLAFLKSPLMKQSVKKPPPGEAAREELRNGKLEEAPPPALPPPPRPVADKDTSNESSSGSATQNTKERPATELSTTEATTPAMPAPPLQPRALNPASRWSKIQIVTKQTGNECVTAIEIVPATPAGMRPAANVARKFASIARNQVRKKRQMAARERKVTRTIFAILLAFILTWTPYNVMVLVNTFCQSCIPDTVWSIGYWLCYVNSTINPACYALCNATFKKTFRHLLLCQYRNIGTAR
Assay: mAChR M4 cell-based functional assay: calcium mobilization (Fluo-4, FDSS), potentiation of EC20 acetylcholine response in hM4-Gqi5 CHO-K1 cells
Conditions: human M4; for Emax at 30 µM: CHO-K1, % ACh maximum at 30 μM; for EC50: potentiation of EC20 acetylcholine response, calcium mobilization
Summary of the method: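 Readout is the fluorescence-ratio rise at 1 Hz on FDSS, with PAM activity taken as concentration-dependent enhancement of the EC20 acetylcholine response, fitted four-parameter for EC50/Emax. hM4-Gqi5 CHO-K1 cells carried Fluo-4 AM dye; test compounds (11 points, 1:3) preceded EC20 acetylcholine additions at 144 s and 230 s.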

Row | SMILES | Emax at 30 µM [%] | EC50 [nM]
1 | Cc1cc(=O)n2nc(N3CCc4ncc(N5CC6CC5CO6)cc4C3)c(C)cc2n1 (stereo not shown) [Compound 2-42, 7-(3-(2-oxa-5-azabicyclo[2.2.1]heptan-5-yl)-7,8-dihydro-1,6-naphthyridin-6(5H)-yl)-2,8-dimethyl-4H-pyrimido[1,2-b]pyridazin-4-one] | 77 | 850
2 | Cc1cc(=O)n2nc(N3CCc4ncc(N5CC6CCC(C5)O6)cc4C3)c(C)c(C)c2n1 [Compound 2-43, 7-(3-(8-oxa-3-azabicyclo[3.2.1]octan-3-yl)-7,8-dihydro-1,6-naphthyridin-6(5H)-yl)-2,8,9-trimethyl-4H-pyrimido[1,2-b]pyridazin-4-one] | 76 | 310
3 | Cc1cc(=O)n2nc(N3CCc4ncc(NCC5CCCOC5)cc4C3)c(C)c(C)c2n1 (stereo not shown) [Compound 2-44, 2,8,9-trimethyl-7-(3-(((tetrahydro-2H-pyran-3-yl)methyl)amino)-7,8-dihydro-1,6-naphthyridin-6(5H)-yl)-4H-pyrimido[1,2-b]pyridazin-4-one] | 65 | 611
4 | COC1CCN(c2cnc3c(c2)CN(c2nn4c(=O)cc(C)nc4c(C)c2C)CC3)CC1 [Compound 2-45, 7-(3-(4-methoxypiperidin-1-yl)-7,8-dihydro-1,6-naphthyridin-6(5H)-yl)-2,8,9-trimethyl-4H-pyrimido[1,2-b]pyridazin-4-one] | 66 | 827
5 | Cc1cc(=O)n2nc(N3CCc4ncc(N5CCSCC5)cc4C3)c(C)c(C)c2n1 [Compound 2-46, 2,8,9-trimethyl-7-(3-thiomorpholino-7,8-dihydro-1,6-naphthyridin-6(5H)-yl)-4H-pyrimido[1,2-b]pyridazin-4-one] | 99 | 308
6 | Cc1cc(=O)n2nc(N3CCc4ncc(N5CCC6(CC5)COC6)cc4C3)c(C)c(C)c2n1 [Compound 2-47, 7-(3-(2-oxa-7-azaspiro[3.5]nonan-7-yl)-7,8-dihydro-1,6-naphthyridin-6(5H)-yl)-2,8,9-trimethyl-4H-pyrimido[1,2-b]pyridazin-4-one] | 66 | 2150
7 | Cc1c(N2CCc3ncc(N4CCC(F)(F)CC4)cc3C2)nn2c(=O)cc(C(F)F)nc2c1C [Compound 2-48, 2-(difluoromethyl)-7-(3-(4,4-difluoropiperidin-1-yl)-7,8-dihydro-1,6-naphthyridin-6(5H)-yl)-8,9-dimethyl-4H-pyrimido[1,2-b]pyridazin-4-one] | 79 | 334
8 | Cc1cc(=O)n2nc(N3CCc4ncc(N5CCOC(c6cccnc6)C5)cc4C3)c(C)c(C)c2n1 (stereo not shown) [Compound 2-49, 2,8,9-trimethyl-7-(3-(2-(pyridin-3-yl)morpholino)-7,8-dihydro-1,6-naphthyridin-6(5H)-yl)-4H-pyrimido[1,2-b]pyridazin-4-one] | 75 | 1200
9 | Cc1cc(=O)n2nc(N3CCc4ncc(NCc5csc(C)n5)cc4C3)c(C)c(C)c2n1 [Compound 2-50, 2,8,9-trimethyl-7-(3-(((2-methylthiazol-4-yl)methyl)amino)-7,8-dihydro-1,6-naphthyridin-6(5H)-yl)-4H-pyrimido[1,2-b]pyridazin-4-one] | 53 | 837
10 | Cc1cc2nccc(=O)n2nc1N1CCc2ncc(N3CC(C)(C)Oc4ccccc43)cc2C1 [Compound 2-51, 7-(3-(2,2-dimethyl-2,3-dihydro-4H-benzo[b][1,4]oxazin-4-yl)-7,8-dihydro-1,6-naphthyridin-6(5H)-yl)-8-methyl-4H-pyrimido[1,2-b]pyridazin-4-one] | 80 | 125
11 | Cc1cc2nccc(=O)n2nc1N1CCc2ncc(N3c4ccc(F)cc4OCC3C)cc2C1 (stereo not shown) [Compound 2-52, 7-(3-(7-fluoro-3-methyl-2,3-dihydro-4H-benzo[b][1,4]oxazin-4-yl)-7,8-dihydro-1,6-naphthyridin-6(5H)-yl)-8-methyl-4H-pyrimido[1,2-b]pyridazin-4-one] | 89 | 16
12 | Cc1ccc2c(c1)N(c1cnc3c(c1)CN(c1nn4c(=O)ccnc4cc1C)CC3)CCO2 [Compound 2-53, 8-methyl-7-(3-(6-methyl-2,3-dihydro-4H-benzo[b][1,4]oxazin-4-yl)-7,8-dihydro-1,6-naphthyridin-6(5H)-yl)-4H-pyrimido[1,2-b]pyridazin-4-one] | 87 | 28
13 | Cc1ccc2c(c1)N(c1cnc3c(c1)CN(c1nn4c(=O)ccnc4cc1C)CC3)C(C)CO2 (stereo not shown) [Compound 2-54, 7-(3-(3,6-dimethyl-2,3-dihydro-4H-benzo[b][1,4]oxazin-4-yl)-7,8-dihydro-1,6-naphthyridin-6(5H)-yl)-8-methyl-4H-pyrimido[1,2-b]pyridazin-4-one] | 96 | 64
14 | Cc1cc2nccc(=O)n2nc1N1CCc2ncc(N3CC(C)Oc4cc(F)ccc43)cc2C1 (stereo not shown) [Compound 2-55, 7-(3-(7-fluoro-2-methyl-2,3-dihydro-4H-benzo[b][1,4]oxazin-4-yl)-7,8-dihydro-1,6-naphthyridin-6(5H)-yl)-8-methyl-4H-pyrimido[1,2-b]pyridazin-4-one] | 89 | 108
15 | Cc1cc2nccc(=O)n2nc1N1CCc2ncc(N3CCOc4cc(F)ccc43)cc2C1 [Compound 2-56, 7-(3-(7-fluoro-2,3-dihydro-4H-benzo[b][1,4]oxazin-4-yl)-7,8-dihydro-1,6-naphthyridin-6(5H)-yl)-8-methyl-4H-pyrimido[1,2-b]pyridazin-4-one] | 98 | 14
16 | Cc1cc2nccc(=O)n2nc1N1CCc2ncc(N3CC(C)Oc4ccccc43)cc2C1 (stereo not shown) [Compound 2-57, 8-methyl-7-(3-(2-methyl-2,3-dihydro-4H-benzo[b][1,4]oxazin-4-yl)-7,8-dihydro-1,6-naphthyridin-6(5H)-yl)-4H-pyrimido[1,2-b]pyridazin-4-one] | 93 | 20
17 | Cc1cc2nccc(=O)n2nc1N1CCc2ncc(N3CCc4ncccc43)cc2C1 [Compound 2-58, 7-(3-(2,3-dihydro-1H-pyrrolo[3,2-b]pyridin-1-yl)-7,8-dihydro-1,6-naphthyridin-6(5H)-yl)-8-methyl-4H-pyrimido[1,2-b]pyridazin-4-one] | 86 | 188
18 | Cc1cc2nccc(=O)n2nc1N1CCc2ncc(N3CCOC(c4ccccc4F)C3)cc2C1 (stereo not shown) [Compound 2-59, 7-(3-(2-(2-fluorophenyl)morpholino)-7,8-dihydro-1,6-naphthyridin-6(5H)-yl)-8-methyl-4H-pyrimido[1,2-b]pyridazin-4-one] | 74 | 268
19 | Cc1cc2nccc(=O)n2nc1N1CCc2ncc(Nc3ccccc3)cc2C1 [Compound 2-60, 8-methyl-7-(3-(phenylamino)-7,8-dihydro-1,6-naphthyridin-6(5H)-yl)-4H-pyrimido[1,2-b]pyridazin-4-one] | 91 | 29
20 | Cc1cc2nccc(=O)n2nc1N1CCc2ncc(N3CCOC(c4cccc(F)c4)C3)cc2C1 (stereo not shown) [Compound 2-61, 7-(3-(2-(3-fluorophenyl)morpholino)-7,8-dihydro-1,6-naphthyridin-6(5H)-yl)-8-methyl-4H-pyrimido[1,2-b]pyridazin-4-one] | 84 | 518
